Reference: patent publication US20190315711A1 (eXIthera Pharmaceuticals, Inc., priority 2016, published 2019)
Values belong to the compound of their own block, whether it stands above or below them.

Key:
Thrombin = molecular target: T1, Thrombin (Homo sapiens, UniProt P00734); test: Dose response assay for protease inhibitors: thrombin; format: biochemical; settings: ratio versus Factor XIa
T1 construct: Thrombin; 0.2 μM in 50% glycerol (7.34 μg/mL)

[1] = Caco-2 cell permeability assay (A-B and B-A); format: in vitro ADME; settings: human; for Papp A→B at 60 min, 10 μM: A-B direction; for Papp B→A at 40 min, 10 μM: B-A direction
In short: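 Caco-2 monolayers were used 21-25 days post-seeding, with compound at 10 μM (1% DMSO) in HBSS-MES pH 6.5 or HBSS-HEPES pH 7.4 on the donor side. Incubation was at 37° C with shaking for 60 min (A−B) or 40 min (B−A). Donor and receiver samples were quantified by HPLC-MS/MS, and Papp and recovery were calculated.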

[2] = Metabolic stability in dog hepatocytes; format: in vitro ADME; settings: pooled cryopreserved hepatocytes; beagle dog hepatocytes, 2 μM compound, 500,000 cells/mL, 37° C.; read-out: Dog Hepatocyte Stability (T½: min)
Procedure: The following procedure was used to determine the stability of test compounds in beagle dog hepatocytes in a 96-well plate format. The test compounds, including the controls, imipramine and 7-ethoxycoumarin, were dissolved at 10 mM in DMSO, followed by further 5-fold dilution with DMSO to 2 mM. Pooled cryopreserved beagle dog hepatocytes were thawed and transferred into complete medium. Cells were gently centrifuged (700 rpm for 5 min) and the pellet rinsed with KHB (Krebs Henseleit buffer). Cells were resuspended, counted using Trypan blue, and adjusted to 1 million cells/mL in KHB buffer. The 2 mM compound stock solutions were diluted 10-fold with acetonitrile, followed by a further 50-fold dilution with KHB buffer. 200 μL of these compound solutions were transferred to 96-well polypropylene assay plates and an equal volume of the hepatocyte solution was added and mixed to initiate the reaction (final assay concentrations were 2 μM compound and 500,000 cells/mL). Assay plates were incubated at 37° C. in 5% CO2 with gentle agitation. 50 μL aliquots were removed at multiple time points out to 180 minutes and quenched with 6 volumes of cold acetonitrile (containing 250 ng/mL of carbutamide and chrysin as internal standards) to terminate the reaction and precipitate protein. Quenched samples were maintained on ice. The quenched samples were centrifuged at 2000×g (3100 rpm) for 10 minutes at 4° C. 50 μL aliquots of the supernatants were removed and diluted with 100 μL Milli-Q water to reduce the % organic content prior to bioanalysis by LC-MS/MS. Peak areas corresponding to the test compound were recorded. The compound remaining was calculated by comparing the peak area at each time point to time zero. Data were analyzed and results were calculated using Microsoft Excel 2010.

Structure (SMILES): CC[C@@H](NC(=O)N1C(=O)[C@H](Cc2ccnc(NC)c2)[C@H]1C(=O)N(C)c1ncccn1)C1CCCCC1 [Compound 80]
Ratio: Thrombin/FXIa (Thrombin): H (“H” indicates 101-1000) | Papp A→B at 60 min, 10 μM [1]: 11 to 30 ×10⁻⁶ cm/s | Papp B→A at 40 min, 10 μM [1]: ≤ 10 ×10⁻⁶ cm/s | half-life at 2 μM [2]: < 1 h

Structure (SMILES): CC[C@@H](NC(=O)N1C(=O)[C@H](Cc2ccnc(N)c2)[C@H]1C(=O)N(C)c1ncncn1)C1CCCCC1 [Compound 81]
Ratio: Thrombin/FXIa (Thrombin): H (“H” indicates 101-1000) | Papp A→B at 60 min, 10 μM [1]: 11 to 30 ×10⁻⁶ cm/s | Papp B→A at 40 min, 10 μM [1]: 11 to 30 ×10⁻⁶ cm/s | half-life at 2 μM [2]: < 1 h

Structure (SMILES): CN(C(=O)[C@@H]1[C@@H](Cc2ccnc(N)c2)C(=O)N1C(=O)NC(c1ccccc1)c1ccccc1)c1ccncc1 [Compound 82]
Ratio: Thrombin/FXIa (Thrombin): H (“H” indicates 101-1000) | Papp A→B at 60 min, 10 μM [1]: ≤ 10 ×10⁻⁶ cm/s | Papp B→A at 40 min, 10 μM [1]: 31 to 50 ×10⁻⁶ cm/s | half-life at 2 μM [2]: 2.02 to 4 h

Structure (SMILES): CC[C@@H](NC(=O)N1C(=O)[C@H](Cc2ccnc(N)c2)[C@H]1C(=O)N(C)c1ccncc1)c1cccc(C)c1 [Compound 87]
Ratio: Thrombin/FXIa (Thrombin): H (“H” indicates 101-1000) | Papp A→B at 60 min, 10 μM [1]: ≤ 10 ×10⁻⁶ cm/s | Papp B→A at 40 min, 10 μM [1]: 31 to 50 ×10⁻⁶ cm/s | half-life at 2 μM [2]: 2.02 to 4 h

Structure (SMILES): CC[C@@H](NC(=O)N1C(=O)[C@H](Cc2ccnc(N)c2)[C@H]1C(=O)N(C)c1ccncc1)c1ccc(Cl)cc1 [Compound 89]
Ratio: Thrombin/FXIa (Thrombin): H (“H” indicates 101-1000) | Papp A→B at 60 min, 10 μM [1]: ≤ 10 ×10⁻⁶ cm/s | Papp B→A at 40 min, 10 μM [1]: 31 to 50 ×10⁻⁶ cm/s | half-life at 2 μM [2]: > 4 h

Structure (SMILES): CC[C@@H](NC(=O)N1C(=O)[C@H](Cc2cc(C)nc(N)c2)[C@H]1C(=O)N(C)c1ccccc1)C1CCCCC1 [Compound 91]
Ratio: Thrombin/FXIa (Thrombin): H (“H” indicates 101-1000) | Papp A→B at 60 min, 10 μM [1]: 11 to 30 ×10⁻⁶ cm/s | Papp B→A at 40 min, 10 μM [1]: ≤ 10 ×10⁻⁶ cm/s | half-life at 2 μM [2]: 1.02 to 2 h

Structure (SMILES): CC[C@@H](NC(=O)N1C(=O)[C@H](Cc2ccnc(N)c2)[C@H]1C(=O)N(C)c1ccncc1)c1cccc(C#N)c1 [Compound 99]
Ratio: Thrombin/FXIa (Thrombin): H (“H” indicates 101-1000) | Papp A→B at 60 min, 10 μM [1]: ≤ 10 ×10⁻⁶ cm/s | Papp B→A at 40 min, 10 μM [1]: 11 to 30 ×10⁻⁶ cm/s | half-life at 2 μM [2]: > 4 h

Structure (SMILES): CC[C@@H](NC(=O)N1C(=O)[C@H](Cc2ccnc(N)c2)[C@H]1C(=O)N(C)c1ccncc1)c1cccc(OC)c1 [Compound 100]
Ratio: Thrombin/FXIa (Thrombin): H (“H” indicates 101-1000) | Papp A→B at 60 min, 10 μM [1]: ≤ 10 ×10⁻⁶ cm/s | Papp B→A at 40 min, 10 μM [1]: 31 to 50 ×10⁻⁶ cm/s | half-life at 2 μM [2]: > 4 h

Continued, values first:

Ratio: Thrombin/FXIa (Thrombin): I (“I” indicates >500) | Papp A→B at 60 min, 10 μM [1]: ≤ 10 ×10⁻⁶ cm/s | Papp B→A at 40 min, 10 μM [1]: > 50 ×10⁻⁶ cm/s | half-life at 2 μM [2]: < 1 h
Structure (SMILES): CC[C@@H](NC(=O)N1C(=O)[C@H](Cc2ccnc(N)c2)[C@H]1C(=O)N(C)c1ncncn1)c1ccccc1 [Compound 83]

Ratio: Thrombin/FXIa (Thrombin): I (“I” indicates >500) | Papp A→B at 60 min, 10 μM [1]: ≤ 10 ×10⁻⁶ cm/s | Papp B→A at 40 min, 10 μM [1]: 31 to 50 ×10⁻⁶ cm/s | half-life at 2 μM [2]: 1.02 to 2 h
Structure (SMILES): CC[C@@H](NC(=O)N1C(=O)[C@H](Cc2ccnc(N)c2)[C@H]1C(=O)N(C)c1ncccn1)c1ccccc1 [Compound 84]

Ratio: Thrombin/FXIa (Thrombin): I (“I” indicates >500) | Papp A→B at 60 min, 10 μM [1]: ≤ 10 ×10⁻⁶ cm/s | Papp B→A at 40 min, 10 μM [1]: 31 to 50 ×10⁻⁶ cm/s | half-life at 2 μM [2]: > 4 h
Structure (SMILES): CCC[C@@H](NC(=O)N1C(=O)[C@H](Cc2ccnc(N)c2)[C@H]1C(=O)N(C)c1ccncc1)c1ccccc1 [Compound 86]

Ratio: Thrombin/FXIa (Thrombin): H (“H” indicates 101-1000) | Papp A→B at 60 min, 10 μM [1]: ≤ 10 ×10⁻⁶ cm/s | Papp B→A at 40 min, 10 μM [1]: 11 to 30 ×10⁻⁶ cm/s | half-life at 2 μM [2]: 2.02 to 4 h
Structure (SMILES): CC[C@@H](NC(=O)N1C(=O)[C@H](Cc2ccnc(N)c2)[C@H]1C(=O)N(C)c1ccncc1)c1cccc(Cl)c1 [Compound 90]

Ratio: Thrombin/FXIa (Thrombin): H (“H” indicates 101-1000) | Papp A→B at 60 min, 10 μM [1]: ≤ 10 ×10⁻⁶ cm/s | Papp B→A at 40 min, 10 μM [1]: 31 to 50 ×10⁻⁶ cm/s | half-life at 2 μM [2]: 2.02 to 4 h
Structure (SMILES): CC[C@@H](NC(=O)N1C(=O)[C@H](Cc2ccnc(N)c2)[C@H]1C(=O)N(C)c1ccncc1)c1ccccc1Cl [Compound 95]

Ratio: Thrombin/FXIa (Thrombin): H (“H” indicates 101-1000) | Papp A→B at 60 min, 10 μM [1]: ≤ 10 ×10⁻⁶ cm/s | Papp B→A at 40 min, 10 μM [1]: 31 to 50 ×10⁻⁶ cm/s | half-life at 2 μM [2]: 2.02 to 4 h
Structure (SMILES): CC[C@H](NC(=O)N1C(=O)[C@H](Cc2ccnc(N)c2)[C@H]1C(=O)N(C)c1ccncc1)c1ccccc1C [Compound 97]
